Assay results published in US20090018150A1, “5-Ht2b Receptor Antagonists” (ASTERAND UK LIMITED, priority 2003, published 2009).

How the values were obtained:
[1] = target: T1, human cloned 5-HT2B receptors (Homo sapiens, UniProt P41595); assay: Human cloned 5-HT2B receptor binding assay; conditions: [3H]LSD (1 nM) displacement, membranes of CHO-K1 cells expressing cloned 5-HT2B receptor; read-out: 5-HT2B pKi (converted)
T1 construct: expressed in transfected cells; host or cells: CHO-K1
Procedure: The binding affinity of the compounds for human cloned 5-HT2B receptors was determined using the following assay.
CHO-K1 cells expressing cloned 5-HT2B receptor were maintained in Ultra-CHO medium containing 400 μg/ml of G418, 100 U/ml penicillin, 100 μg/ml streptomycin, 2.5 μg/ml fungizone and 1-foetal bovine serum, in 95/5% O2/CO2 at 37° C. The cells were harvested using 0.25% trypsin and were centrifuged at 800 rpm for 8 minutes. The cells were homogenised in 50 mM HEPES buffer containing 1 mM disodium EDTA and 1 mM PMSF at pH 7.4, using a Dounce homogeniser (20 strokes). The homogenate was centrifuged at 2280 rpm (1000 g) and 4° C. for 10 minutes, after which the supernatant was removed by decanting. The pellet was re-homogenised as above, and the resulting supernatant removed and combined with that already obtained. The supernatant solution was then centrifuged at 18300 rpm (40000 g) for 10 minutes at 4° C. using a Sorvall centrifuge. The supernatant was removed, and the pellet was re-suspended in 50 mM buffer at pH 7.4 using a Ultra-turrax T25 Polytron, before centrifugation again at 40000 g as above. This wash procedure was repeated, after which the membrane preparation was stored at a concentration of 1 mg/ml at −80° C. until use.
The membranes were thawed rapidly and diluted in assay buffer containing Tris-HCl (50 mM, pH 7.4), ascorbic acid (0.1°) and calcium chloride (4 mM). The membranes were homogenised to resuspend them, prior to adding 10 or 15 μg of membranes to assay wells containing [^3H]LSD (1 nM), assay buffer (50 mM Tris, 4 mM calcium chloride and 0.1° ascorbic acid) containing pargyline (10 μM), and the test compounds (1×10^−10 to 1×10^−4M). Non specific binding was determined in the presence of 100 μM 5-HT. After 30 minutes incubation at 37° C., the assay mixture was filtered through a combination of GF-C and GF-B filters, pre-soaked in 1% polyethyleneimine, using a Brandel cell harvester, and were washed three times using 50 mM Tris-HCl. Radioactivity retained on the filters was determined by liquid scintillation counting. For each test compound, the concentration that inhibited binding of [^3H]LSD by 50% was determined using curve fitting software (Prism). Kd values (concentration of LSD required to occupy 50% of the receptor binding sites at equilibrium) determined from saturation binding studies were then used to calculate inhibition dissociation constants (Ki) using the following equation: […]
This approach follows that set out in Kenakin, T. P. Pharmacologic analysis of drug-receptor interaction. Raven Press, New York, 2nd Edition.

[2] = target: T2, cloned human 5-HT2A receptor (Homo sapiens, UniProt P28223); assay: Human 5-HT2A receptor binding assay; conditions: [3H]ketanserin (1 nM) displacement, CHO-K1 cell membranes; read-out: 5-HT2A pKi (converted)
T2 construct: purchased Euroscreen; host or cells: CHO-K1
T2 sequence (P28223 whole entry): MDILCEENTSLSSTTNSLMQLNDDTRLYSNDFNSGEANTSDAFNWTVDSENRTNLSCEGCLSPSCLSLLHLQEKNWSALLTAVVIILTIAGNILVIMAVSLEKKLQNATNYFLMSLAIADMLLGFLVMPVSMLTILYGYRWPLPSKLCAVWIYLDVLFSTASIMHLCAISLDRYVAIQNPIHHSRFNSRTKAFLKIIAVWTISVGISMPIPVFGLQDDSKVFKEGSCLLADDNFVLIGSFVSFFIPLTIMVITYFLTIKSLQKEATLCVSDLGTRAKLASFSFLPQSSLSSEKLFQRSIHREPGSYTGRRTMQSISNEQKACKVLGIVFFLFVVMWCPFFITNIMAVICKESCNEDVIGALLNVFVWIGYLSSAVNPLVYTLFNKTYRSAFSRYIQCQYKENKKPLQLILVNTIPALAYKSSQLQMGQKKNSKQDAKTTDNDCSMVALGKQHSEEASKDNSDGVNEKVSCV
Procedure: (§1) The binding affinity of ligands for human 5-HT2A and 5-HT2C receptors was determined using the following assay.
Membrane preparations from CHO-K1 cells expressing the cloned human 5-HT2A receptor were obtained (Euroscreen). The membranes were thawed rapidly and diluted in assay buffer containing Tris-HCl (50 mM, pH 7.7). The membranes were resuspended by homogenisation, prior to adding 15 μg of membranes to assay wells containing [3H]ketanserin (1 nM), assay buffer (50 mM Tris at pH 7.4) containing pargyline (10 μM), and test compounds (1×10^−10 to 1×10^−4M). Non specific binding was determined in the presence of 100 μM mianserin. After 15 minutes incubation at 37° C., the assay mixture was filtered through a combination of GF-C and GF-B filters, pre-soaked in 0.05% Brij, using a Brandel cell harvester, and were washed three times using ice cold Tris-HCl buffer (50 mM). Radioactivity retained on the filters was determined by liquid scintillation counting. For each test compound, the concentration that inhibited binding of [^3H]ketanserin by 50% was determined using curve fitting software (Prism). Kd values (concentration of ketanserin required to occupy 50% of the receptor binding sites at equilibrium) determined from saturation binding studies were then used to calculate inhibition dissociation constants (Ki) using the following equation: […]

[3] = target: T3, cloned human 5-HT2C receptor (Homo sapiens, UniProt P28335); assay: Human 5-HT2C receptor binding assay; conditions: [3H]mesulergine (1 nM) displacement, CHO-K1 cell membranes; read-out: 5-HT2C pKi (converted)
T3 construct: purchased Euroscreen; host or cells: CHO-K1
T3 sequence (P28335 33-458): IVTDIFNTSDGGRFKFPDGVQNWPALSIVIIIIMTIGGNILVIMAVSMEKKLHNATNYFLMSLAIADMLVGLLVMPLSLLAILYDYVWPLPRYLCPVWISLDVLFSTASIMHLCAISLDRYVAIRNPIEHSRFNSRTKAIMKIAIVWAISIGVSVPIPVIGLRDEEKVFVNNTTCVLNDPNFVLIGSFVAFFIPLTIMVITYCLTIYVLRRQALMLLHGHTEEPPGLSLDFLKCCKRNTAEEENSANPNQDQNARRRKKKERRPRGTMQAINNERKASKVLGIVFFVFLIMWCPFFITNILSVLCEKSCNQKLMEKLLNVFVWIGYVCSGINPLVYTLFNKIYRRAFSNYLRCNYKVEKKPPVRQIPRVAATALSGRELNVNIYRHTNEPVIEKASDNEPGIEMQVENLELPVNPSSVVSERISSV
Procedure: as §1
Membrane preparations from CHO-K1 cells expressing the cloned human 5-HT2C receptor were obtained (Euroscreen). The membranes were thawed rapidly and diluted in assay buffer containing Tris-HCl (50 mM, pH 7.7), ascorbic acid (0.1%) and pargyline (10 μM). The membranes were resuspended by homogenisation, prior to adding 6 μg of membranes to assay wells containing [^3H]mesulergine (1 nM), assay buffer (50 mM Tris at pH 7.7 and 0.1% ascorbic acid) containing pargyline (10 μM), and test compounds (1×10^−10 to 1×10^−4M). Non specific binding was determined in the presence of 100 μM mianserin. After 30 minutes incubation at 37° C., the assay mixture was filtered through a combination of GF-C and GF-B filters, pre-soaked in 1% bovine serum albumin, using a Brandel cell harvester, and were washed three times using ice cold Tris-HCl buffer (50 mM). Radioactivity retained on the filters was determined by liquid scintillation counting. For each test compound, the concentration that inhibited binding of [^3H]mesulergine by 50% was determined using curve fitting software (Prism). Kd values (concentration of mesulergine required to occupy 50% of the receptor binding sites at equilibrium) determined from saturation binding studies were then used to calculate inhibition dissociation constants (Ki) using the following equation: […]

T1 sequence (P41595 whole entry): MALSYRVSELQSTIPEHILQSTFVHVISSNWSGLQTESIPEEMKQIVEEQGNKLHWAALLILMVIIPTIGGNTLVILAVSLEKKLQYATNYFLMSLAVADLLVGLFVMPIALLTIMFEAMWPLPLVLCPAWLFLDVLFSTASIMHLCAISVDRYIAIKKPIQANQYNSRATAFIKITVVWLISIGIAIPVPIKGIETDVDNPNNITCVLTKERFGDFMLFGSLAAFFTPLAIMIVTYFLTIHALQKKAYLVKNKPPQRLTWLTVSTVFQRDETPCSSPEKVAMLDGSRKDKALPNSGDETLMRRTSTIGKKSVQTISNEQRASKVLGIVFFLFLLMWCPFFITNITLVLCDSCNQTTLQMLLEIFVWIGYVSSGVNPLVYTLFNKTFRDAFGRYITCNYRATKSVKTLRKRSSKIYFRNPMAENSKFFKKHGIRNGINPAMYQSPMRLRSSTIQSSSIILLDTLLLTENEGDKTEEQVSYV

| Compound | Ki [1] [µM] | Ki [2] [µM] | Ki [3] [µM] |
| --- | --- | --- | --- |
| COc1ccc(-c2c[nH]c(NC(C)=O)n2)c2ccccc12 [Compound 103B, N-[4-(4-Methoxy-naphthalen-1-yl)-1H-imidazol-2-yl]-acetamide] | < 1 | > 10 | > 10 |
| COc1c(-c2cnc(NC(C)=O)[nH]2)ccc2ccccc12 [Compound 103E, N-[4-(1-Methoxy-naphthalen-2-yl)-1H-imidazol-2-yl]-acetamide] | < 0.1 | > 10 | > 1 |
| CC(=O)Nc1nc(-c2cccc3ccc(Br)cc23)c[nH]1 [Compound 103G, N-[4-(7-Bromo-naphthalen-1-yl)-1H-imidazol-2-yl]-acetamide] | < 0.1 | > 1 | > 1 |
| CC(=O)Nc1nc(-c2cccc3c(Br)cccc23)c[nH]1 [Compound 103H, N-[4-(5-Bromo-naphthalen-1-yl)-1H-imidazol-2-yl]-acetamide] | < 0.1 | > 1 | > 1 |
| CC(=O)Nc1nc(-c2cccc3ccccc23)c(C)[nH]1 [Compound 103I, N-(5-Methyl-4-naphthalen-1-yl-1H-imidazol-2-yl)-acetamide] | < 0.1 | > 1 | > 1 |
| CC(=O)Nc1nc(-c2cccc3sccc23)c[nH]1 [Compound 103L, N-(4-Benzo[b]thiophen-4-yl-1H-imidazol-2-yl)-acetamide] | < 0.1 | > 10 | > 10 |
| CC(=O)Nc1nc(-c2cccc3ccccc23)c[nH]1 [Compound 103N, N-(4-Naphthalen-1-yl-1H-imidazol-2-yl)-acetamide] | < 1 | > 10 | > 10 |
| CC(=O)Nc1ncc(-c2sc3ccccc3c2C)[nH]1 [Compound 103O, N-[4-(3-Methyl-benzo[b]thiophen-2-yl)-1H-imidazol-2-yl]-acetamide] | < 1 | > 10 | > 10 |
| CC(=O)Nc1nc(-c2c(O)ccc3ccccc23)c[nH]1 [Compound 103Q, N-[4-(2-hydroxy-naphthalen-1-yl)-1H-imidazol-2-yl]-acetamide] | < 1 | > 3.16 | > 1 |
| CCOc1ccc2ccccc2c1-c1c[nH]c(N)n1 [Compound 104A, 4-(2-Ethoxy-naphthalen-1-yl)-1H-imidazol-2-ylamine] | < 1 | > 1 | > 0.1 |
| COc1ccc(-c2c[nH]c(N)n2)c2ccccc12 [Compound 104B, 4-(4-Methoxy-naphthalen-1-yl)-1H-imidazol-2-ylamine] | < 0.1 | > 3.16 | > 3.16 |
| COc1c(-c2cnc(N)[nH]2)ccc2ccccc12 [Compound 104E, 4-(1-Methoxy-naphthalen-2-yl)-1H-imidazol-2-ylamine] | < 0.1 | > 1 | > 0.1 |
| Nc1nc(-c2ccc(F)c3ccccc23)c[nH]1 [Compound 104F, 4-(4-Fluoro-naphthalen-1-yl)-1H-imidazol-2-ylamine] | < 0.1 | > 1 | > 1 |
| Nc1nc(-c2cccc3ccc(Br)cc23)c[nH]1 [Compound 104G, 4-(7-Bromo-naphthalen-1-yl)-1H-imidazol-2-ylamine] | < 0.1 | > 0.316 | > 0.316 |
| Nc1nc(-c2cccc3c(Br)cccc23)c[nH]1 [Compound 104H, 4-(5-Bromo-naphthalen-1-yl)-1H-imidazol-2-ylamine] | < 0.1 | > 0.316 | > 0.1 |
| Cc1[nH]c(N)nc1-c1cccc2ccccc12 [Compound 104I, 5-Methyl-4-naphthalen-1-yl-1H-imidazol-2-ylamine] | < 0.1 | > 3.16 | > 1 |
| CC(C)c1[nH]c(N)nc1-c1cccc2ccccc12 [Compound 104K, 5-Isopropyl-4-naphthalen-1-yl-1H-imidazol-2-ylamine] | < 0.1 | > 0.1 | > 0.316 |
| Cc1c(-c2cnc(N)[nH]2)sc2ccccc12 [Compound 104O, 4-(3-Methyl-benzo[b]thiophen-2-yl)-1H-imidazol-2-ylamine] | < 0.316 | > 10 | > 0.316 |
| Nc1nc(-c2ccc(-c3ccccc3)cc2)c[nH]1 [Compound 104P, 4-Biphenyl-4-yl-1H-imidazol-2-ylamine] | < 0.316 | > 0.1 | > 0.316 |
| Nc1nc(-c2cccc(-c3ccccc3)c2)c[nH]1 [Compound 108, 4-biphenyl-3-yl-1H-imidazol-2-ylamine] | < 0.1 | > 0.316 | > 0.1 |
| Nc1ncc(-c2cccc(-c3ccccc3)c2)o1 [Compound 209A, 5-Biphenyl-3-yl-oxazol-2-ylamine] | < 0.316 | > 10 | > 10 |
| Cc1cccc(-c2cccc(-c3cnc(N)o3)c2)c1 [Compound 209B, 5-(3′-Methyl-biphenyl-3-yl)-oxazol-2-ylamine] | < 0.316 | > 10 | > 10 |
| Nc1ncc(-c2cccc(-c3cccc(O)c3)c2)o1 [Compound 209C, 3′-(2-Amino-oxazol-5-yl)-biphenyl-3-ol] | < 1 | > 10 | > 10 |
| Nc1ncc(-c2cccc(-c3ccccc3Cl)c2)o1 [Compound 209E, 5-(2′-Chloro-biphenyl-3-yl)-oxazol-2-ylamine] | < 0.316 | > 1 | > 10 |
| COc1ccccc1-c1cccc(-c2cnc(N)o2)c1 [Compound 209G, 5-(2′-Methoxy-biphenyl-3-yl)-oxazol-2-ylamine trifluoroacetic acid] | < 0.1 | > 1 | > 1 |
